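Tested at 5 concentrations; 48 h exposure; 96-well plates; endpoints linearly interpolated, else capped at highest concentration. GI50 is the concentration that inhibits growth by half.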 The source made the active and inactive calls. Rule as the data show it: active = GI50 up to about 1.1 µM and inactive = higher.
Experiments:
Experiment in all cases: NCI anticancer screen, dose series, 48 h
NCI/ADR-RES = system: NCI/ADR-RES
T47D = system: T47D
UACC-62 = system: UACC-62
OVCAR-8 = system: OVCAR-8
U-251 = system: U-251
SR = system: SR
CCRF-CEM = system: CCRF-CEM
HOP-62 = system: HOP-62
LOX IMVI = system: LOX IMVI
SNB-75 = system: SNB-75
HT-29 = system: HT-29
UACC-257 = system: UACC-257
SK-MEL-28 = system: SK-MEL-28
SK-MEL-2 = system: SK-MEL-2
SK-OV-3 = system: SK-OV-3
SK-MEL-5 = system: SK-MEL-5
A549 = system: A549
OVCAR-3 = system: OVCAR-3
MDA-MB-435 = system: MDA-MB-435

Measured: GI50

C[C@@]1(OC(=O)c2cc([N+](=O)[O-])cc([N+](=O)[O-])c2)C[C@@H]2CCCC[C@@H]21
inactive: NCI/ADR-RES > 100 µM | T47D > 100 µM | UACC-62 > 100 µM | OVCAR-8 > 100 µM | U-251 > 100 µM | SR > 100 µM | CCRF-CEM > 100 µM | HOP-62 > 100 µM | LOX IMVI > 100 µM | SNB-75 48.2 µM | HT-29 > 100 µM | UACC-257 > 100 µM | SK-MEL-28 > 100 µM | SK-MEL-2 > 100 µM | SK-OV-3 > 100 µM | SK-MEL-5 83.8 µM | A549 > 100 µM

C[C@@]12c3c4ccc(C=O)c3Oc3ccc(C=O)c(c31)Oc1c(C=O)ccc(c12)O4
inactive: NCI/ADR-RES > 100 µM | T47D > 100 µM | UACC-62 > 100 µM | OVCAR-8 > 100 µM | U-251 > 100 µM | SR 2.96 µM | OVCAR-3 > 100 µM | HOP-62 > 100 µM | LOX IMVI > 100 µM | SNB-75 > 100 µM | HT-29 > 100 µM | UACC-257 > 100 µM | SK-MEL-28 > 100 µM | SK-MEL-2 > 100 µM | SK-OV-3 > 100 µM | SK-MEL-5 > 100 µM | A549 > 100 µM | MDA-MB-435 > 100 µM

CC1(C)CC(=O)C2=C(C1)NC1=C(C(=O)CC(C)(C)C1)C2c1ccc([N+](=O)[O-])cc1
inactive: T47D > 100 µM | UACC-62 > 100 µM | OVCAR-8 > 100 µM | U-251 > 100 µM | OVCAR-3 > 100 µM | HOP-62 > 100 µM | LOX IMVI > 100 µM | SNB-75 16.7 µM | HT-29 > 100 µM | UACC-257 > 100 µM | SK-MEL-28 > 100 µM | SK-MEL-2 > 100 µM | SK-OV-3 > 100 µM | SK-MEL-5 > 100 µM | A549 > 100 µM | MDA-MB-435 > 100 µM

OCCCc1cnco1
inactive: UACC-62 > 100 µM | OVCAR-8 > 100 µM | U-251 > 100 µM | SR > 100 µM | CCRF-CEM > 100 µM | OVCAR-3 > 100 µM | HOP-62 > 100 µM | LOX IMVI > 100 µM | SNB-75 > 100 µM | HT-29 > 100 µM | UACC-257 > 100 µM | SK-MEL-28 > 100 µM | SK-OV-3 > 100 µM | SK-MEL-5 > 100 µM | A549 > 100 µM

COc1ccc(/C(=N/OCCCC(=O)O)c2cccs2)cc1
inactive: NCI/ADR-RES > 100 µM | T47D > 100 µM | UACC-62 > 100 µM | OVCAR-8 > 100 µM | U-251 > 100 µM | CCRF-CEM > 100 µM | OVCAR-3 > 100 µM | HOP-62 > 100 µM | LOX IMVI > 100 µM | SNB-75 > 100 µM | HT-29 > 100 µM | UACC-257 > 100 µM | SK-MEL-2 > 100 µM | SK-OV-3 > 100 µM | SK-MEL-5 > 100 µM | A549 > 100 µM | MDA-MB-435 > 100 µM

C[C@@]12C[C@@H](c3ccccc3O1)N1Cc3ccccc3CSC1=N2
inactive: NCI/ADR-RES > 100 µM | T47D 72.9 µM | UACC-62 81.5 µM | OVCAR-8 > 100 µM | U-251 52.8 µM | SR > 100 µM | OVCAR-3 35.4 µM | HOP-62 > 100 µM | LOX IMVI 35.5 µM | SNB-75 > 100 µM | HT-29 38.3 µM | UACC-257 66.5 µM | SK-MEL-28 > 100 µM | SK-MEL-2 > 100 µM | SK-OV-3 > 100 µM | SK-MEL-5 44.4 µM | MDA-MB-435 > 100 µM

C=C1CN(C(=O)c2cc3cc(OC)c(OC)c(OC)c3[nH]2)c2cc([N+](=O)[O-])ccc21
inactive: NCI/ADR-RES > 100 µM | T47D > 100 µM | UACC-62 > 100 µM | OVCAR-8 > 100 µM | U-251 19.1 µM | SR > 100 µM | OVCAR-3 > 100 µM | LOX IMVI > 100 µM | SNB-75 51.1 µM | HT-29 > 100 µM | UACC-257 > 100 µM | SK-MEL-28 > 100 µM | SK-MEL-2 34.8 µM | SK-OV-3 33.2 µM | SK-MEL-5 > 100 µM | A549 > 100 µM | MDA-MB-435 > 100 µM

O=C(/C=C/c1ccccc1F)C(c1ccccc1)c1ccccc1
inactive: UACC-62 2.08 µM | U-251 3.74 µM | SR 3.41 µM | CCRF-CEM 2.31 µM | OVCAR-3 3.97 µM | LOX IMVI 1.71 µM | SNB-75 4.76 µM | HT-29 2.75 µM | UACC-257 4.82 µM | SK-MEL-28 2.72 µM | SK-MEL-2 2.51 µM | SK-OV-3 2.01 µM | A549 3.76 µM

Reference: ChEMBL document CHEMBL1201862, “PubChem BioAssay data set” (2004)
